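All cell lines were grown in 96-well plates and treated with compound for 48 hours. TGI: concentration producing complete growth inhibition.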
Experiments:
Experiment in all cases: NCI anticancer screen, dose series, 48 h
EKVX NSCLC = tested on: EKVX NSCLC
HCT-116 colon = tested on: HCT-116 colon
K-562 leukemia = tested on: K-562 leukemia
LOX IMVI melanoma = tested on: LOX IMVI melanoma
MALME-3M melanoma = tested on: MALME-3M melanoma
MCF7 breast = tested on: MCF7 breast
OVCAR-8 ovarian = tested on: OVCAR-8 ovarian
MDA-MB-231 breast = tested on: MDA-MB-231 breast
UACC-257 melanoma = tested on: UACC-257 melanoma
SR leukemia = tested on: SR leukemia

| Compound | TGI (EKVX NSCLC) | TGI (HCT-116 colon) | TGI (K-562 leukemia) | TGI (LOX IMVI melanoma) | TGI (MALME-3M melanoma) | TGI (MCF7 breast) | TGI (OVCAR-8 ovarian) | TGI (MDA-MB-231 breast) | TGI (UACC-257 melanoma) | TGI (SR leukemia) |
| --- | --- | --- | --- | --- | --- | --- | --- | --- | --- | --- |
| CC1=NN(C(=O)c2ccccc2)C(=O)C1N=Nc1ccccc1C(=O)O (centres undefined) | > 100 µM | > 100 µM | > 29.4 µM | > 100 µM | > 100 µM | 19 µM | > 100 µM |  |  |  |
| COc1cc(C2c3cc4c(cc3[C@@H](Nc3ccc(N5CCOCC5)cc3)C3COC(=O)[C@H]23)OCO4)cc(OC)c1O (some centres undefined) | 5.06 µM | 13.7 µM | 5.01 µM | 4.27 µM | 15 µM | 14.7 µM | 3.95 µM |  |  |  |
| CN1CCN(CCCCNc2cc3c4ccccc4c(NCCCCN4CCN(C)CC4)cc3c3ccccc23)CC1 | 18.7 µM | 2.13 µM | 6.8 µM | 2.42 µM | 5.09 µM | 2.71 µM | 10.2 µM | 2.89 µM | 19 µM |  |
| Cn1nc2ccc3nccc(NCCNCCCl)c3c2n1 | > 100 µM | > 100 µM | > 100 µM | > 100 µM | > 100 µM |  | > 100 µM |  |  | > 100 µM |
| OC(C1CCCC1=N/N=C1/CCCC1C(O)(C(F)(F)Cl)C(F)(F)Cl)(C(F)(F)Cl)C(F)(F)Cl (centres undefined) | > 10 µM | > 10 µM | > 10 µM | > 10 µM | > 10 µM | > 10 µM | > 10 µM | > 10 µM | > 10 µM |  |
| CCC(c1nc2ccccc2c(=O)n1NC(=O)C(C)(C)C)C1(O)CCCCC1 (centres undefined) | > 100 µM | > 100 µM | > 100 µM |  | > 100 µM | > 100 µM | > 100 µM | > 100 µM | > 100 µM | > 100 µM |
| FC(F)(F)c1nc2cc(SSc3cc4nc(C(F)(F)F)[nH]c4cc3Cl)c(Cl)cc2[nH]1 | > 100 µM | > 100 µM | > 100 µM | > 100 µM | > 100 µM | > 100 µM | > 100 µM | > 100 µM | > 100 µM |  |
| Cc1ccc(-c2nc3n(c2/C=N\N=C(N)N)CCS3)cc1 | 30.9 µM | 28.5 µM | 44.2 µM | 31.9 µM | 31.2 µM |  | 29.3 µM | 29.9 µM | 30.5 µM | > 100 µM |
| CC(=O)O[C@H]1CC[C@H]2[C@@H]3CC[C@H]4Nc5c(cnn5S(C)(=O)=O)C[C@]4(C)[C@H]3CC[C@]12C |  | > 100 µM | > 100 µM |  | > 100 µM | 82.4 µM | > 100 µM | > 100 µM |  | > 100 µM |
| N/C(=N\N=C/c1cc(Cl)cc(Cl)c1O)NO | 37.6 µM | 12.3 µM | > 46.3 µM | 6.66 µM | 24 µM | 10.3 µM | 19 µM |  | 29.3 µM |  |
| COc1ccc2c(c1)Cc1c-2[nH]c2cc3c(cc2c1=O)OCO3 | > 100 µM | 23.2 µM | > 100 µM | 34.2 µM | 42.8 µM |  | > 100 µM |  |  |  |
| CCN(CC)CCNc1ccc2nnn3c4ccc(OC(C)=O)cc4c(=O)c1c23 | 19.3 µM | > 37.5 µM | > 19.8 µM | 6.83 µM | 16.3 µM | 16.2 µM | 16.7 µM | 16 µM | 24.9 µM |  |
| CC(=O)C1C(=O)C(=O)N(c2ccc([N+](=O)[O-])cc2Cl)C1=O (centres undefined) | > 100 µM | > 100 µM |  | > 100 µM |  | > 100 µM | > 100 µM | > 100 µM | > 100 µM |  |
| CC(=N\N=C\c1ccccn1)/C(C)=N/N=C/c1ccccn1 | > 100 µM | > 100 µM |  | > 100 µM | > 100 µM | > 100 µM | > 100 µM | > 100 µM | > 100 µM | > 100 µM |
| CC[S+](C)c1ccc(-c2c3nc(c(-c4ccc([S+](C)CC)cc4)c4ccc([nH]4)c(-c4ccc([S+](C)CC)cc4)c4nc(c(-c5ccc([S+](C)CC)cc5)c5ccc2[nH]5)C=C4)C=C3)cc1 (centres undefined) | 94.8 µM | > 100 µM | > 100 µM | 23.3 µM | > 100 µM |  | > 100 µM |  | > 100 µM | 87.5 µM |
| CC(=O)O[C@@H]1CC2[C@@H](CCC3Cc4nc5c(nc4C[C@@]32C)CC2CC[C@@H]3C(CC[C@@]4(C)C3CC[C@@H]4C(C)CCCC(C)C)[C@@]2(C)C5)C2C[C@@H]3OC4(CCC(C)CO4)C(C)[C@@H]3[C@]21C (some centres undefined) | > 100 µM | > 100 µM | > 100 µM |  | > 100 µM | > 100 µM | > 100 µM | > 100 µM | > 100 µM | > 100 µM |
| C[n+]1c(-c2ccc(/C=N/Nc3n[nH]c(=S)n3N/N=C/c3ccc(-c4cn5ccccc5[n+]4C)cc3)cc2)cn2ccccc21 | > 100 µM | > 100 µM | > 100 µM |  |  | > 100 µM | > 100 µM | > 100 µM | > 100 µM | > 100 µM |
| Cc1cc(O)c(/C=N/C(=O)NN)c(=O)o1 | > 100 µM | > 100 µM |  | > 100 µM |  | > 100 µM | > 100 µM | > 100 µM | > 100 µM |  |
| CCOC(=O)CC(=Nc1cc(C)on1)N(CC)CC | > 100 µM | > 100 µM | > 100 µM |  | > 100 µM |  | > 100 µM |  |  | > 100 µM |
| CCOc1ccc(-n2c(=O)n3c(Nc4ccc(Cl)cc4)nc4c(c(=O)n(C)c(=O)n4C)n3c2=O)cc1 | 89.6 µM | 40.2 µM | 84 µM | 44.8 µM |  | > 100 µM | > 100 µM | 35.1 µM | 60.4 µM | 51.6 µM |
| Cc1noc(C)c1N=Nc1ccc2nonc2c1N | 9.77 µM | > 100 µM |  | > 100 µM | > 100 µM | > 100 µM | > 100 µM | > 100 µM | > 100 µM | > 100 µM |
| CCN(CC)CCNC(=O)c1cc2cc(NC(=O)c3cc4cc(NC(=O)c5cc6cc([N+](=O)[O-])ccc6[nH]5)ccc4[nH]3)ccc2[nH]1 | > 100 µM |  | > 100 µM | > 100 µM | > 100 µM |  | > 100 µM | > 100 µM | > 100 µM | 14.4 µM |
| N#CCCCCC12C3C(=O)N(c4ccccc4)C(=O)C3ON1O[C@@H]1C(=O)N(c3ccccc3)C(=O)[C@@H]12 (some centres undefined) | > 100 µM |  | > 100 µM | > 100 µM | > 100 µM | > 100 µM | > 100 µM | > 100 µM | > 100 µM |  |

— PubChem BioAssay (NCI)
